Data on eleven compounds can be found in patent publication US20250129021A1, “SMALL MOLECULE PROTEIN SYNTHESIS MODULATORS” (Interdict Bio, Inc., priority 2023, published 2025).

Common to all, as to type: biochemical
Holding throughout (conditions): HeLa S3 lysate, sfGFP/mCherry ratio, 2 hrs at 30° C.

In one assay the test system is KRAS G12D. Put plainly: In vitro transcription-translation (IVTT) assay, KRAS G12D reporter. The source says: (§1) All reporter constructs have been cloned into the pT7CFE1-CHis plasmid (ThermoFisher #88860) using Gibson assembly procedures (NEB #E2611L). The parental pT7CFE1-CHis plasmid contains an EMCV IRES at the 5′UTR for translation initiation, a multiple-cloning site (MCS) for gene insertion, an optional C-terminal His-epitope tag, and polyA sequence in the 3′UTR to regulate mRNA stability. All reporters are designed to be inserted at the MCS to include a red fluorescent protein (mCherry), P2A self-cleaving peptide which releases the preceding mCherry protein product, and a fusion open reading frame containing a 3×FLAG epitope, a peptide sequence of interest (TEST), and green fluorescent protein (sfGFP).
(§2) Construct Plasmid Preparation: All plasmids are isolated from MACH1 cells (ThermoFisher) grown overnight in ampicillin-containing luria broth, and purified using ZymoPure Express Plasmid Midiprep Kit (Zymo Research). Constructs are sequenced verified and diluted to a working concentration of 110 ng/μL.
(§3) HeLa S3 Lysate Preparation: HeLa S3 cell pellets are acquired from Ipracell/Ipratech (Belgium) and shipped as 4 mL frozen cell pellets on dry ice for storage at −80° C. until use. The procedure for lysate preparation is as follows. Prepare 1× Lysis Buffer, cold and stored on ice:
(§4) Each preparation takes 8 cell pellets (4 ml packed volume each, approximately 1.0×10^9 cells per pellet). Thaw cell pellets from −80° C. on ice for 90 mins. Lay pellets horizontally on top of the ice and rotate every 30 mins to ensure even thawing. Once thawed, add 4 mL of cold lysis buffer to each pellet, and using a serological pipet, gently pipet up and down to break up clumps. Incubate resuspended cells in ice for an additional 30 mins (plunged into ice). During 30 min incubation, rinse and RNase-zap (Ambion) glass dounces (use loose pestle “A”), gently dry and place on ice until needed. Prepare RNase-free Eppendorf tubes for spinning and for batch storage. Add batch labels to 1.5-1.7 mL RNase-free microcentrifuge tubes (labeling scheme below). Each batch will have an extra 1.5-1.7 mL RNase-free microcentrifuge tube for 40 μL of lysate, label the top of this tube (labeling scheme below). After 30 min incubation, transfer all 8 mL of cell pellet to dounce. Cell lysis is complete after douncing 100 times. Aliquot cell lysis into 1.5-1.7 mL temporary-microcentrifuge tubes. Place tubes in centrifuge with “fins” out, and spin at 1,200×g for 5 mins. After the first spin use a 1 mL pipet to resuspend each tube and repeat spin. This acts as an additional lysis step, is more vigorous and increases lysate yield. During second spin get liquid N2 and a fresh conical tube on ice. After spin is complete, transfer supernatant (lysate) from microcentrifuge tubes into the 50 mL conical tube and keep on ice. Repeat steps 10-14 for all other cell pellets until completed. Once all cell lysate has been transferred to the 50 mL conical tube pipet to mix so the solution is homogenous. Transfer 1 mL of lysate into batch-labeled microcentrifuge tubes and flash freeze in liquid nitrogen. Be sure to pipet up and down to mix throughout transfer step. Place all tubes in the […] for long-term storage.
(§5) In vitro transcription-translation assay setup: Each assay includes a master mix containing lysate and shared components, a 96-well plate containing compound titrations for testing, a 96-well DNA plate with reporter constructs to be tested, 96-well skirted PCR plates, and 96-well flat-bottom, black, fluorescent assay plates. […]

In a further assay the test system is ALK. In words: In vitro transcription-translation (IVTT) assay, ALK reporter.
Text: as §1, §2, §3, §4, §5

The test system of another assay is MYC. Put plainly: In vitro transcription-translation (IVTT) assay, MYC reporter. The essentials: (§6)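 Reporter: mCherry, P2A, then 3×FLAG-target peptide-sfGFP fusion, IRES-initiated; HeLa S3 lysate IVTT; cpd dilutions 30 μM−0.1 μM half-log in 100% DMSO (dilution-plate conc); DNA added last; 2 h, 30° C; PBS quench.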
A further assay concerns CCND1. Put plainly: In vitro transcription-translation (IVTT) assay, CCND1 reporter. A digest of the protocol: as §6
Another assay deals with MCL-1. Put plainly: In vitro transcription-translation (IVTT) assay, MCL-1 reporter. The essentials:
as §6

For orientation: IC50 means the concentration needed to halve the response being measured.

For the compound `COc1ccc(CC2NCC(O)[C@H]2OC(=O)NCCN(Cc2ccccn2)Cc2ccccn2)cc1` (stereo in doubt) [V187537, (2S,3S,4R)-4-hydroxy-2-[(4-methoxyphenyl)methyl]pyrrolidin-3-yl N-{2-[bis(pyridin-2-ylmethyl)amino]ethyl}carbamate; trifluoroacetic acid], the IC50 in the assay on KRAS G12D is 20 to 30 µM; in the assay on ALK, under 10 µM; in the assay on MYC it was under 10 µM.
Consider `COc1ccc(C[C@H]2NC[C@H](O)[C@H]2OC(=O)NCCOCCN(C)C)cc1` [V187383, (2R,3S,4S)-4-hydroxy-2-[(4-methoxyphenyl)methyl]pyrrolidin-3-yl N-{2-[2-(dimethylamino)ethoxy]ethyl}carbamate], for which the IC50 with KRAS G12D is over 30 µM; in the assay on ALK it was under 10 µM.
For the compound `COc1ccc(C[C@H]2NC[C@H](O)[C@H]2OC(=O)NC[C@@H]2CCCO2)cc1` [V187521, (2R,3S,4S)-4-hydroxy-2-[(4-methoxyphenyl)methyl]pyrrolidin-3-yl N-[(2S)-oxolan-2-ylmethyl]carbamate; trifluoroacetic acid], the IC50 was 10 to 20 µM with KRAS G12D, under 10 µM in the assay on CCND1, under 10 µM in the assay on MYC and under 10 µM in the assay on MCL-1.
For the compound `COc1ccc(C[C@H]2NC[C@H](O)[C@H]2OC(=O)NCCN2CC(O)(C#N)C2)cc1` [V187567, (2R,3S,4S)-4-hydroxy-2-[(4-methoxyphenyl)methyl]pyrrolidin-3-yl N-[2-(3-cyano-3-hydroxyazetidin-1-yl)ethyl]carbamate], the IC50 lay within 20 to 30 µM in the assay on KRAS G12D, 20 to 30 µM with CCND1 and 10 to 20 µM in the assay on MYC.
Consider `COc1ccc(C[C@H]2NC[C@H](O)[C@H]2OC(=O)NCCO)cc1` [V187584, (2R,3S,4S)-4-hydroxy-2-[(4-methoxyphenyl)methyl]pyrrolidin-3-yl N-(2-hydroxyethyl)carbamate], for which the IC50 with KRAS G12D was 10 to 20 µM; with ALK it was under 10 µM.
For the compound `COc1ccc(C[C@H]2NC[C@H](O)[C@H]2OC(=O)Nc2nnc(CO)s2)cc1` [V187598, (2R,3S,4S)-4-hydroxy-2-[(4-methoxyphenyl)methyl]pyrrolidin-3-yl N-[5-(hydroxymethyl)-1,3,4-thiadiazol-2-yl]carbamate; trifluoroacetic acid], the half-maximal inhibitory concentration (IC50) in the assay with KRAS G12D and in the assay on ALK was under 10 µM throughout.
As for `COc1ccc(C[C@H]2NC[C@H](O)[C@H]2OC(=O)NCCNCCOC(C)C)cc1` [V187640, (2R,3S,4S)-4-hydroxy-2-[(4-methoxyphenyl)methyl]pyrrolidin-3-yl N-{2-[(2-isopropoxyethyl)amino]ethyl}carbamate; trifluoroacetic acid], the IC50 in the assay on KRAS G12D and in the assay on MYC was over 30 µM throughout.
As to `COc1ccc(C[C@H]2NC[C@H](O)[C@H]2OC(=O)NCCN2CCC3(C2)CC(F)(F)C3)cc1` [V187643, (2R,3S,4S)-4-hydroxy-2-[(4-methoxyphenyl)methyl]pyrrolidin-3-yl N-(2-{2,2-difluoro-6-azaspiro[3.4]octan-6-yl}ethyl)carbamate], the IC50 with KRAS G12D was over 30 µM; with ALK, 20 to 30 µM.
For `COc1ccc(C[C@H]2NC[C@H](O)[C@H]2OC(=O)Nc2ccccc2)cc1` [V187666, (2R,3S,4S)-4-hydroxy-2-[(4-methoxyphenyl)methyl]pyrrolidin-3-yl N-phenylcarbamate], the IC50 in the assay on KRAS G12D and with ALK was over 30 µM throughout.
With `COc1ccc(C[C@H]2NC[C@H](O)[C@H]2OC(=O)NNCc2ccno2)cc1` [V187668, 1-{[(2R,3S,4S)-4-hydroxy-2-[(4-methoxyphenyl)methyl]pyrrolidin-3-yl]oxy}-N′-(1,2-oxazol-5-ylmethyl)formohydrazide; trifluoroacetic acid], the IC50 was 10 to 20 µM in the assay on KRAS G12D and under 10 µM in the assay with ALK.
For `CCC(=O)NNC(=O)O[C@@H]1[C@@H](O)CN[C@@H]1Cc1ccc(OC)cc1` [V187739, 1-{[(2R,3S,4S)-4-hydroxy-2-[(4-methoxyphenyl)methyl]pyrrolidin-3-yl]oxy}-N′-propanoylformohydrazide; trifluoroacetic acid], the IC50 with KRAS G12D is 10 to 20 µM; in the assay on ALK, under 10 µM.
